We go through twelve molecules from US7473760B2, “Cyclic peptide compositions for treatment of sexual dysfunction” (Palatin Technologies, Inc., priority 1999, dated 2009).

In series [1] the test system is male Sprague-Dawley rats. As to the kind of experiment: Induction of penile erections in male rats. The note with it: 3 μg/kg intravenous; male rats observed 30 minutes. It counts as in vivo, rat. The protocol:
Male Sprague-Dawley rats weighing 200-250 g were kept on a 12 hour on/off light cycle with food and water ad libitum. All behavioral studies were performed between 10 a.m. and 5 p.m. Groups of 6 rats were treated with peptides at a variety of doses, primarily 3 μg/kg, via intravenous administration. Immediately after administration, rats were placed into individual polystyrene cages (27 cm long, 16 cm wide, and 25 cm high) for behavioral observation. […] Using the above procedure, the mean number of penile erections for each rat on intravenous administration of 3 μg/kg was determined as shown on Table 2.

In series [2] the test system is men with psychogenic erectile dysfunction. The note with it: subcutaneous, 0.025 to 0.157 mg/kg, cited from earlier work.
Series [3] concerns the target MC1-R (B16-F1 mouse melanoma cells) (Mus musculus, UniProt Q01727). As to the kind of experiment: Competitive inhibition binding assay with 125I-NDP-MSH, MC1-R. The note with it: 1 μM peptide, B16-F1 mouse melanoma membranes, read-out: Percent Inhibition At 1 μM concentration MC1-R.
Experimental: Each assay was conducted in triplicate.
(§1) B16-F1 mouse melanoma cells were used as the source of MC1 receptors; HEK 293 cells, transfected with human melanocortin receptor sequences, were used as the source of MC3, MC4 and MC5 receptors.
The target in series [4] is T1, hMC3-R (Homo sapiens, UniProt P41968).
T1 construct: expressed in transfected cells; host or cells: HEK 293 cells (membranes)
T1 sequence (P41968 whole entry): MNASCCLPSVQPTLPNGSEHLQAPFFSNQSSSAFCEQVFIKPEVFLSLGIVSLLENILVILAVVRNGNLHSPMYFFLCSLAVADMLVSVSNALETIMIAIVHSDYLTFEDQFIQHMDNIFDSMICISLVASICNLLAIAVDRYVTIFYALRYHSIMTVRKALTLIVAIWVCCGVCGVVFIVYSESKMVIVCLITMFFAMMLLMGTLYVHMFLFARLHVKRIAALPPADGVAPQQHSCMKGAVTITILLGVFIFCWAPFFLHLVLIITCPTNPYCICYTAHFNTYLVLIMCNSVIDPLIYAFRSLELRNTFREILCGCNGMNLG
As to the kind of experiment: Competitive inhibition binding assay with 125I-NDP-MSH, MC3-R. The note with it: 1 μM peptide, HEK 293 human MC3, read-out: Percent Inhibition At 1 μM concentration MC3-R.
Experimental: Each assay was conducted in triplicate.
as §1

For series [5], the target named is T2, hMC4-R (Homo sapiens, UniProt P32245).
T2 construct: expressed in transfected cells; whole cells for cAMP
T2 sequence (P32245 whole entry): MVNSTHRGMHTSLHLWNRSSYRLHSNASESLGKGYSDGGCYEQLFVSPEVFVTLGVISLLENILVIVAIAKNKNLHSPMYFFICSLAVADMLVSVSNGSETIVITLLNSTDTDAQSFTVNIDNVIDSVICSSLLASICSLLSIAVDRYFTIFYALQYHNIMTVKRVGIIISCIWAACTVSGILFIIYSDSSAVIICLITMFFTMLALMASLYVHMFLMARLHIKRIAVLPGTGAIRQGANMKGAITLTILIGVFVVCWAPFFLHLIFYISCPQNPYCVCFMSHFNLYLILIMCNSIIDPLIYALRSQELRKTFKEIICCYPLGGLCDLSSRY
The series is described as follows: Competitive inhibition binding assay with 125I-NDP-MSH, MC4-R. The note with it: 1 μM peptide, HEK 293 human MC4, read-out: Percent Inhibition At 1 μM concentration MC4-R.
Experimental: Each assay was conducted in triplicate.
as §1

Series [6] deals with T3, hMC5-R (Homo sapiens, UniProt P33032).
T3 construct: expressed in transfected cells; host or cells: HEK 293 cells (membranes)
T3 sequence (P33032 whole entry): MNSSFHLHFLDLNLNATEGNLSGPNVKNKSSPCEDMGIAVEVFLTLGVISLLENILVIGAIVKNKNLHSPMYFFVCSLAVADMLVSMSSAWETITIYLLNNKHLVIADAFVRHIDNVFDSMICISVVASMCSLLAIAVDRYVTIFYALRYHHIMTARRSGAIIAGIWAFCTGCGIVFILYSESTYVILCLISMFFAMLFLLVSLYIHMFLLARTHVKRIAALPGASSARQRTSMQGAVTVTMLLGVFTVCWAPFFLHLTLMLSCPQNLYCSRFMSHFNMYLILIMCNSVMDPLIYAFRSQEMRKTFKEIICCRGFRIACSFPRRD
As to the kind of experiment: Competitive inhibition binding assay with 125I-NDP-MSH, MC5-R. The note with it: 1 μM peptide, HEK 293 human MC5, read-out: Percent Inhibition At 1 μM concentration MC5-R.
Experimental: Each assay was conducted in triplicate.
as §1

The target of series [7] is T2, hMC4-R. The series is described as follows: Stimulation of intracellular cAMP production in transfected HEK-293 cells expressing hMC4-R. It counts as cell-based. The protocol:
Functional assays to determine agonist or antagonist status of a cyclic peptide of the invention may be conducted by any means known in the art. In one method, a cAMP assay is performed. Human MC4-R cells are grown to confluence in 96 well plates (plating approximately 250,000 cells per well). Identical sets of cells in triplicate are treated with 0.2 mM isobutylmethylxanthine (IBMX) and the chosen concentration of the peptide or alternatively the peptide in the presence of 20 nM NDP-MSH. Cells similarly treated but with only 20 nM NDP-MSH serve as positive controls in a volume of 200 μL. A buffer blank, as a negative control, is also included. Incubation is for one hour at 37° C. after which the cells are lysed by the addition of 50 μL of a cell lysis buffer. Total cAMP accumulated in 250 μL of this solution is quantitated using a commercially available low pH cAMP assay kit (Amersham BioSciences) by the procedure specified by the kit supplier. Any peptide showing cAMP accumulation in the same range as or higher than the positive control (buffer blank in the presence of α-MSH) is considered to be an agonist. A peptide showing accumulation in the same range as the negative control (buffer blank in the absence of α-MSH) is ineffective at the test concentration if the result is similar to the positive control where α-MSH is also present in the assay. A peptide showing accumulation in the same range as the negative control is considered to be an antagonist if there is inhibition in cAMP when α-MSH is present in the assay. Similar methods may be employed for MC3-R, using MC3-R cells.
For orientation: cAMP levels reflect the balance of adenylyl cyclase and phosphodiesterase activity.

MC1-R (B16-F1 mouse melanoma cells), sequence (Q01727 whole entry): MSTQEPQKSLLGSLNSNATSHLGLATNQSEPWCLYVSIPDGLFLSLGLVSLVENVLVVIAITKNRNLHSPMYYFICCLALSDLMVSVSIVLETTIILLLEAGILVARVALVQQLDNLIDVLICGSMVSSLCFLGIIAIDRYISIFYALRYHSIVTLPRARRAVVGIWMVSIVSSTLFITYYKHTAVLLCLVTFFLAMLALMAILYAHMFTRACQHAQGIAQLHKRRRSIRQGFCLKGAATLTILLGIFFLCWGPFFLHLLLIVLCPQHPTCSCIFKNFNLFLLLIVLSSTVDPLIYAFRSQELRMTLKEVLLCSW

With “Ac-Nle-cyclo(-Asp-His-D-Phe(4-Cl)-Arg-Trp-Lys)-OH”, the “Mean PE/Rat (mean number of penile erections for each rat)” value (“Mean PE/Rat” for short) in series [1] was 0.33. “Ac-Nle-cyclo(-Asp-Trp-D-Phe-Arg-Trp-Lys)-OH”: the “Mean PE/Rat” value in series [1] is listed as 0.5. In the case of Melanotan-II, the transient side effects result in series [2] was “nausea, stretching and yawning, and decreased appetite”. The “mean duration of tip rigidity greater than 80%” value in series [2] (placebo 3.0 minutes, p=0.0045) is 38 min. Turning to `CCCC[C@H](NC(C)=O)C(=O)N[C@H]1CC(=O)NCCCC[C@@H](C(=O)O)NC(=O)[C@H](Cc2c[nH]c3ccccc23)NC(=O)[C@H](CCCCN)NC(=O)[C@@H](Cc2ccccc2)NC(=O)[C@H](Cc2c[nH]cn2)NC1=O` [Ac-Nle-cyclo(-Asp-His-D-Phe-Lys-Trp-Lys)-OH], the inhibition at 1 µM in series [3] is 86%; in series [4], 8%; in series [5], 46%; in series [6] it was 17%. Moreover, in series [7], the “Functional Activity at MC4-R” value is listed as “Agonist”. The “Mean PE/Rat” value in series [1] was 1.33. For “cyclo(-Succ-His-D-Phe-Arg-Trp-Lys)-OH (FRWK; cyclic succinyl, His, D-residue prefix; printed: Phe-Arg-Trp-Lys)”, the “Functional Activity at MC4-R” value in series [7] is “Agonist”. For “Ac-Nle-cyclo(-Asp-D-His-D-Phe-Arg-Trp-Lys)-OH”, the “Mean PE/Rat” value in series [1] amounted to 0.33. Consider “Ac-Nle-cyclo(-Asp-His-D-Phe-Arg-Nal 1-Lys)-OH”, for which the “Mean PE/Rat” value in series [1] came out at 0.33. Consider “Ac-Nle-cyclo(-Asp-His-Phe-Arg-Trp-Lys)-OH”, for which the “Functional Activity at MC4-R” value in series [7] is “Inactive”. In the case of “Ac-Nle-cyclo(-Asp-Tyr-D-Phe-Arg-Trp-Lys)-OH”, in series [1], the “Mean PE/Rat” value turned out to be 0.67. Still for that read-out and setting: as for “Ac-Nle-cyclo(-Asp-Phe-D-Phe-Arg-Trp-Lys)-OH”, the figure is 0.33; as for “Ac-Nle-cyclo(-Asp-His-D-Phe-Arg-D-Trp-Lys)-OH”, 0.83. Regarding “Ahx-cyclo(-Asp-His-D-Phe-Arg-Trp-Lys)-OH”, in series [1], the “Mean PE/Rat” value came out at 0.33.
